System: cancer cell lines
Experiment: Multiplexed cytotoxicity assay: cell proliferation (relative cell count IC50, GI50)
Format: cell-based
Settings: Homo sapiens
Description: (§1) Cells are grown in RPMI1640, 10% FBS, 2 mM L-alanyl-L-Glutamine, 1 mM Na pyruvate or a special medium in a humidified atmosphere of 5% CO2 at 37° C. Cells are seeded into 384-well plates and incubated in a humidified atmosphere of 5% CO2 at 37° C. Compounds are added 24 h post cell seeding. At the same time, a time zero untreated cell plate is generated. After a 72 hour incubation period, cells are fixed and stained with fluorescently labeled antibodies and nuclear dye to allow visualization of nuclei, apoptotic cells and mitotic cells. Apoptotic cells are detected using an anti-active caspase-3 antibody. Mitotic cells are detected using an anti phospho-histone-3 antibody. Compounds are serially diluted 3.16-fold and assayed over 10 concentrations in a final assay concentration of 0.1% DMSO from the highest test concentration of 10 μM. Automated fluorescence microscopy was carried out using a Molecular Devices ImageXpress Micro XL high-content imager, and images are collected with a 4× objective.
(§2) Sixteen-bit TIFF images are acquired and analyzed with MetaXpress 5.1.0.41 software. Cell proliferation is measured by the signal intensity of the incorporated nuclear dye. The cell proliferation assay output is referred to as the relative cell count. To determine the cell proliferation end point, the cell proliferation data output is transformed to percentage of control (POC) using the following formula: POC=relative cell count(compound wells)/relative cell count(vehicle wells)×100
(§3) GI50 is the concentration needed to reduce the observed growth by half. This is the concentration that inhibits the growth to the level midway between growth in untreated cells and the number of cells seeded in the well (Time zero value). The IC50 values are calculated using nonlinear regression to fit data to a sigmoidal 4 point, 4 parameter One-Site dose response model, where: y(fit)=A+[(B−A)/(1+((C/x)^D))].
as §1, with “In another experiment, cells were grown” for “Cells are grown”, “Cells were” for “Cells are”, “Compounds were” for “Compounds are”, “plate was” for “plate is”, “cells were” for “cells are”, “images were” for “images are”
as §2, with “images were” for “images are”, “proliferation was” for “proliferation is”, “output was” for “output is”
as §3, with “GI50 refers to” for “GI50 is”, “This corresponds to” for “This is”, “values were” for “values are”

[1] = NCI-H446, 72 h, NCIH446, Lung, SCLC, 72 h
[2] = NCI-H460, 72 h, NCIH460, Lung, NSCLC, 72 h
[3] = NCI-H510A, 72 h, NCIH510A, Lung, SCLC
[4] = NCI-H520, 72 h, NCIH520, Lung, NSCLC, 72 h
[5] = NCI-H596, 72 h, NCIH596, Lung, NSCLC, 72 h
[6] = NCI-H661, 72 h, NCIH661, Lung, NSCLC, 72 h
[7] = NTERA-2-cl-D1, 72 h, NTERA2CLD1, Testis, 72 h
[8] = OE19, 72 h, OE19, Head and Neck, Esophageal, 72 h
[9] = OE33, 72 h, OE33, Head and Neck, Esophageal, 72 h
[10] = OVCAR-3, 72 h, OVCAR3, Female GU, Ovary, 72 h
[11] = PANC-1, 72 h, PANC1, Pancreas, 72 h
[12] = PSN1, 72 h, PSN1, Pancreas, 72 h
[13] = RL95-2, 72 h, RL952, Female GU, Uterus, 72 h
[14] = RPMI-6666, RPMI6666 (Hematopoietic and lymphoid, Lymphoma)
[15] = RPMI-7951, RPMI7951 (Skin, Melanoma)
[16] = RPMI-8226, 72 h, RPMI8226, Hematopoietic and lymphoid, Myeloma, 72 h
[17] = RS4-11, RS411 (Hematopoietic and lymphoid, Leukemia)
[18] = Raji, RAJI (Hematopoietic and lymphoid, Lymphoma)
[19] = Rec1, REC1 (Hematopoietic and lymphoid, Lymphoma)
[20] = SAOS-2, 72 h, SAOS2, Soft Tissue, Osteosarcoma, 72 h
[21] = SHP77, 72 h, SHP77, Lung, SCLC, 72 h
[22] = SJRH30, 72 h, SJRH30, Soft Tissue, Sarcoma, 72 h
[23] = SJSA-1, 72 h, SJSA1, Soft Tissue, Osteosarcoma, 72 h
[24] = SK-LMS-1, 72 h, SKLMS1, Soft Tissue, Sarcoma, 72 h
[25] = SK-MEL3, 72 h, SKMEL3, Skin, Melanoma, 72 h
[26] = SK-MEL-1, SKMEL1 (Skin, Melanoma)
[27] = SK-MEL-28, SKMEL28 (Skin, Melanoma)
[28] = SK-MES-1, 72 h, SKMES1, Lung, NSCLC, 72 h

## C[C@]1(C(N)=O)CC[C@@H](n2c(Nc3c(Cl)cc(Cl)cc3Cl)nc3cnc(N[C@@H]4CCOC[C@H]4F)nc32)CC1 [Compound 1, cis-4-[2-{[(3S,4R)-3-fluorooxan-4-yl]amino}-8-(2,4,6-trichloroanilino)-9H-purin-9-yl]-1-methylcyclohexane-1-carboxamide]
NCI-H441, 72 h, NCIH441, Lung, NSCLC, 72 h
  IC50: 1250 nM
[1]
  GI50: 327 nM
  IC50: > 10000 nM
[2]
  GI50: > 10000 nM
  IC50: > 10000 nM
NCI-H508, NCIH508 (Colon)
  GI50: 28.8 nM
  IC50: 48.1 nM
[3]
  GI50: 3700 nM
  IC50: 6610 nM
[4]
  GI50: 991 nM
  IC50: 2130 nM
[5]
  GI50: 2750 nM
  IC50: > 10000 nM
[6]
  GI50: 1440 nM
  IC50: 2640 nM
NCI-H747, NCIH747 (Colon)
  GI50: 12 nM
  IC50: 44.5 nM
[7]
  GI50: 44 nM
  IC50: 50.7 nM
[8]
  GI50: 340 nM
  IC50: > 10000 nM
[9]
  GI50: 63 nM
  IC50: 96.9 nM
[10]
  GI50: > 10000 nM
  IC50: > 10000 nM
[11]
  GI50: 41.6 nM
  IC50: 80 nM
PFSK-1, PFSK1 (CNS, Glioma)
  GI50: 23.4 nM
  IC50: > 10000 nM
[12]
  GI50: 8.3 nM
  IC50: 9.2 nM
RKOE6, RKOE6 (Colon)
  GI50: 75.3 nM
  IC50: 107 nM
[13]
  GI50: 9 nM
  IC50: 59.9 nM
[14]
  GI50: 80.1 nM
  IC50: 370 nM
[15]
  GI50: 71.6 nM
  IC50: 94.5 nM
[16]
  GI50: 1090 nM
  IC50: 2480 nM
[17]
  GI50: 359 nM
  IC50: 2960 nM
[18]
  GI50: 179 nM
  IC50: > 10000 nM
[19]
  GI50: 5.3 nM
  IC50: 193 nM
[20]
  GI50: 3570 nM
  IC50: 6880 nM
SCC-4, SCC4 (Head and Neck)
  GI50: 51.2 nM
  IC50: 108 nM
SCC-9, SCC9 (Head and Neck)
  GI50: 117 nM
  IC50: 280 nM
SCC-25, SCC25 (Head and Neck)
  GI50: 43.9 nM
  IC50: 51 nM
SCaBER, SCABER (Bladder)
  GI50: 66.5 nM
  IC50: 77.2 nM
[21]
  GI50: 4790 nM
  IC50: 5820 nM
[22]
  GI50: 219 nM
  IC50: 1470 nM
[23]
  GI50: 1160 nM
  IC50: 2460 nM
SK-BR-3, SKBR3 (Breast)
  GI50: 6810 nM
  IC50: 8450 nM
[24]
  GI50: 146 nM
  IC50: 166 nM
[25]
  GI50: 28.4 nM
  IC50: 62.5 nM
[26]
  GI50: 1 nM
  IC50: 29.1 nM
[27]
  GI50: 27.9 nM
  IC50: 57.1 nM
[28]
  GI50: 103 nM
  IC50: 122 nM

Source: patent publication US10513519B2, “Solid forms of (1S,4S)-4-(2-(((3S,4R)-3-fluorotetrahydro-2H-pyran-4-yl)amino)-8-((2,4,6-trichlorophenyl)amino)-9H-purin-9-yl)-1-methylcyclohexane-1-carboxamide and methods of their use” (Signal Pharmaceuticals, LLC, priority 2016, dated 2019)
